Results from US10004773B2, “Plant compositions and methods and uses thereof for treating elevated glucocorticoid related disorders, and anxiety” (University of Ottawa, priority 2012, dated 2018).

Test system: nursery piglets
Assay: Feeding study in weaned nursery piglets
Type: in vivo, pig
Description: The test materials used in the study were the Souroubea gilgii and purified betulinic acid. The Souroubea gigli plant samples (labelled SS for Souroubea sp.) were harvested from the canals in Tortuguero, Costa Rica. The samples were chipped, dried and powdered. Samples were dried overnight in a commercial plant drier at 35° C. and ground to 1 mm mesh.
The objective of the study was to investigate the production performance and stress related responses in nursery piglets that were fed a supplemented of either dried Souroubea gilgii plant material (SS) or one of its active anxiolytic compounds, purified betulinic acid (BA). The following parameters were evaluated: (1) plasma levels of Acute Phase Proteins (APP) and cortisol, (2) behavioral and stress related aggressive interactions and injuries (aggressive pushing, number of fights and the duration of fights in seconds), (3) production performance parameters (average daily gain (ADG), feed intake, feed efficiency (kg feed/kg body weight gain)) and (4) health evaluation (incidence of disease, disease treatments and deaths).
The study included 300 piglets that were 21 days of age at the start of the experiment (day of weaning and first day of treatment). The piglets were treated at days 0 and 21 and monitored over a 39 day period. The pigs were 60 days of age at the end of the study. Pigs were randomly assigned to one of five treatment groups, with 60 pigs in each group: (1) Group A. untreated control, (2) Group B. 0.5 mg BA/kg body weight, (3) Group C. 1 mg BA/kg body weight, (4) Group D. 2 mg BA/kg body weight and (5) Group E. SS group, 500 mg ground SS leaves/kg body weight (BA concentration equivalent to 0.5 mg BA/kg body weight).
Blood samples from 8 pigs in each treatment group were drawn on days 0, 2, 7, 14, 21 and 39 for a total of 240 blood samples, to determine plasma APP and cortisol levels. The same pigs from each treatment group were used for each blood sample day. Pigs were also weighed and feed intake was measured on these days to calculate performance parameters.

SMILES: C=C(C)[C@@H]1CC[C@]2(C(=O)O)CC[C@]3(C)[C@H](CC[C@@H]4[C@@]5(C)CC[C@H](O)C(C)(C)[C@@H]5CC[C@]43C)[C@@H]12 [BA, betulinic acid]
- number of wounds (2 mg/kg (Group D)): appeared to reduce
- aggressive behavior and extent of injuries (BA doses below 2 mg/kg): little effect
- plasma cortisol levels (day 2, Group C 1 mg/kg BA, vs Groups A and B, p<0.01): significantly lower
- plasma cortisol levels (day 2, Group D 2 mg/kg BA, vs Groups A and B, p<0.01): significantly lower
- plasma cortisol levels (days 7 and 14, Group D 2 mg BA/kg, vs Group A, p<0.05): significantly lower
- plasma cortisol levels (first 14 days post-weaning, 2 mg BA/kg): significantly reduced
- dose required to reduce plasma cortisol in the first days after weaning (piglets): 1 mg BA/kg
